Data on four molecules can be found in US9492470B2, “Use of HMGA-targeted phosphorothioate DNA aptamers to suppress carcinogenic activity and increase sensitivity to chemotherapy agents in human cancer cells” (MIAMI UNIVERSITY, priority 2012, dated 2016).

In the oligonucleotide strings, read from the 5' end, every base follows the letter of its sugar. An asterisk marks phosphorothioate; unmarked linkages are phosphodiester. Other units and linkages are bracketed, terminal groups are in braces. A string of capitals states the bases alone. d = 2'-deoxy (DNA)

The target in one data set is T1, HMGA1 (Homo sapiens, UniProt P17096).
T1 construct: The cDNA for full length HMGA1b was cloned into pET-30b; made in house; host or cells: Escherichia coli BL21 (DE3)
T1 sequence (P17096 1-96 isoform P17096-2): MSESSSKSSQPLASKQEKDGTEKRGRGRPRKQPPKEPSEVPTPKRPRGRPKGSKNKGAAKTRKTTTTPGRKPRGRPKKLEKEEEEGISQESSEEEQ
Briefly: Electrophoretic mobility shift assay (EMSA), HMGA1 competitive binding against ATf10 DNA. The note with it: for formation of HMGA/ATf10 DNA complex in presence of competitor DNA: equal amounts of ATf10 and CG10 or Mix10, ATf10 DNA:HMGA1 1:1. The procedure: The cDNA for full length HMGA1b was cloned into pET-30b and overexpressed in Eschericia coli (E. Coli) BL21 (DE3). E. coli expressing HMGA1b was cultured at 37° C. to an OD600 measurement of 0.8 to 1.0 OD600. Protein expression was induced by the addition of 1 mM IPTG and shaking at 37° C. for 4-6 hours. HMGA1 was purified by trichloroacetic acid precipitation as described in R. Reeves, HMGA proteins: isolation, biochemical modifications, and nucleosome interactions. Methods in enzymology 375 (2004) 297-322, the disclosure of which is incorporated herein by reference. Overexpressed HMGA1b was further purified with a Sephadex G-25 column in H2O and lyophilized using a standard freezedrying procedure. The samples were resolublized in a 25 mM Tris-HCl (pH 6.5), 50 mM NaCl buffer for analysis.
The following 28-mer oligonucleotides were purchased from Integrated DNA Technologies (Coralville, Iowa, USA): ATf10 5′-(56FAM)-[…]-3′ (SEQ ID NO: 4), and ATs10 5′-GGGT*T*T*T*T*T*T*T*T*T*[…]-3′ (SEQ ID NO: 5) (the “*” indicates the location of phosphorothioate linkage). ATf10 contained a fluorescence tag to serve as a marker for later analysis. […] AT10f was annealed with its complementary strand without a fluorescence tag, and ATs10 was annealed with a strand with no sulfur substitution. […]
The HMGA protein samples were prepared in 25 mM Tris-HCl (pH 6.5), 50 mM NaCl, and the concentrations determined based on UV […] absorbance (ε=38,200 mol-1 cm-1). […] The DNA was detected at 495 nm using the VersaDoc™ Imaging System Model 3000 from BIO-RAD Laboratories, Inc. of Hercules, Calif. […]
In order to determine if HMGA1 DNA binding activity was affected by sulfur substitution in the DNA phosphodiester backbone, fluorescence labeled DNA (ATf10 DNA) was used in competitive binding assays against various sulfur substituted DNAs where different ratios of ATf10 DNA and ATs10 DNA were added to a constant amount of purified HMGA1 (FIG. 1A). […]
Since ATs10 DNA has no fluorescence label, no signal could be detected when only ATs10DNA was added to HMGA1 (FIG. 1A, lane 9). […]

For data set [1] the following is noted: cited from earlier work.

Consider “Mix10: negative control DNA, random sequence of A, T, C, G with no AT-stretch (SEQ ID NO: 7) (DNA GGGCGTGACTGAGCGCGGCGGCCCCGCG; DNA, all phosphodiester, methylation of C not given here)”, for which the “formation of HMGA/ATf10 DNA complex in presence of competitor DNA” value with HMGA1 was “still observed”. As to “ATs10: 28-mer oligonucleotide with phosphorothioate linkages in the T tract (SEQ ID NO: 5) (DNA dGdGdGdT*dT*dT*dT*dT*dT*dT*dT*dT*dT*dCdGdCdGdGdCdGdGdCdCdCdCdGdCdG; annealed with complementary strand)”, the “ATf10 DNA detected in the unshifted position” value with HMGA1 (1:1 ratio of ATf10 DNA to ATs10 DNA, ATf10 DNA to HMGA1 1:1.5 (FIG. 1A, lane 4)) is reported as “approximately half”. Regarding “CG10: negative control DNA containing only a mixture of C and G (SEQ ID NO: 6) (DNA GGGCCCCCCCCCCCGCGGCGGCCCCGCG; DNA, all phosphodiester, methylation of C not given here)”, the “formation of HMGA/ATf10 DNA complex in presence of competitor DNA” value with HMGA1 is recorded as “still observed”.

Turning to `NC(=O)OC[C@H]1c2c(O)cc(C=O)cc2N2CC3N[C@@H]3[C@]1(O)O2` (stereo partly shown) [FR900482], in data set [1], the toxicity in humans entry is “high toxicity”.
